Read-outs that look alike come from different tables or passages of the source.
Legend:
rat mGlu2 receptor = target: T1, rat mGlu2 receptor (Rattus norvegicus, UniProt P31421); test: [3H]-LY354740 binding on mGlu2 transfected CHO cell membranes
T1 construct: expressed in transfected cells; vector pcD1mGR2

[1] = inhibition of 10 nM [3H]-LY354740 binding, mGlu2 transfected CHO cell membranes, room temperature, 1 hour, read-out: Ki mGlu2

T1 sequence (P31421 19-872): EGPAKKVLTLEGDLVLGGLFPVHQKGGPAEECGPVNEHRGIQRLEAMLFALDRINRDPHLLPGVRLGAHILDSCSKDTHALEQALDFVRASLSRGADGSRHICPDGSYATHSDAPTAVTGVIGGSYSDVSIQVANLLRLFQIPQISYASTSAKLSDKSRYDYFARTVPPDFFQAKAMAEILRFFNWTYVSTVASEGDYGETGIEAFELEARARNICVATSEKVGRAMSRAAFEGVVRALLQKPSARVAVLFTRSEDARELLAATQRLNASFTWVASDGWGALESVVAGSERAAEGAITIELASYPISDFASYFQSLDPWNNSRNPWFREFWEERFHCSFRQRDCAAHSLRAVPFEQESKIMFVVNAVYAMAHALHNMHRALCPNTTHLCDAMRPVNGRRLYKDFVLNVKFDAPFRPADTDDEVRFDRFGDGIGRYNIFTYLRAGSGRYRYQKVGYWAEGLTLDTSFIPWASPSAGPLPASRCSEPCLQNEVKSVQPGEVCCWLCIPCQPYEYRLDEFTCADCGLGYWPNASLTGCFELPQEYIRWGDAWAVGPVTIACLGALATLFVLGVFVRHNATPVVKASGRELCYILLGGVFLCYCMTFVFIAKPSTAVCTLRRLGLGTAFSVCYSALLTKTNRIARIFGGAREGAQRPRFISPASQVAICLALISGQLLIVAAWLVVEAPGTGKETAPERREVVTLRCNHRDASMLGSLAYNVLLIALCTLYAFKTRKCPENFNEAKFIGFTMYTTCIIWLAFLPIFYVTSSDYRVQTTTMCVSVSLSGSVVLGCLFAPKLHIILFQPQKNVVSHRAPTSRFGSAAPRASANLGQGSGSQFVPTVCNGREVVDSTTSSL

Ki (rat mGlu2 receptor; [1]) | melting point | Compound | Ki (rat mGlu2 receptor)
5.5 nM | 214 °C | O=C1CC(c2cccc(-c3cnccn3)c2)=Nc2ccc(-n3cccc3)cc2N1 [Example 109, 4-(3-Pyrazin-2-yl-phenyl)-8-pyrrol-1-yl-1,3-dihydro-benzo[b][1,4]diazepin-2-one] | 
5 nM |  | Cc1cc2c(cc1C(F)(F)F)NC(=O)CC(c1ccnc(-c3cccnc3)c1)=N2 [Example 290, 4-[2,3′]Bipyridinyl-4-yl-7-methyl-8-trifluoromethyl-1,3-dihydro-benzo[b][1,4]diazepin-2-one] | 
10 nM | 237 °C | Cc1cc2c(cc1C(F)(F)F)NC(=O)CC(c1cccc(-c3cnccn3)c1)=N2 [Example 87, 7-Methyl-4-(3-pyrazin-2-yl-phenyl)-8-trifluoromethyl-1,3-dihydro-benzo[b][1,4]diazepin-2-one] | 
6 nM | 229 to 230 °C | Cc1ncccc1-c1cccc(C2=Nc3cc(N(C)C)c(C(F)(F)F)cc3NC(=O)C2)c1 [Example 13, 7-Dimethylamino-4-[3-(2-methyl-pyridin-3-yl)-phenyl]-8-trifluoromethyl-1,3-dihydro-benzo[b][1,4]diazepin-2-one] | 
4 nM | 228 to 230 °C | Cc1cc(-c2cccc(C3=Nc4cc(C)c(C(F)(F)F)cc4NC(=O)C3)c2)nc(NCCO)n1 [Example 322, 4-{3-[2-(2-Hydroxy-ethylamino)-6-methyl-pyrimidin-4-yl]-phenyl}-7-methyl-8-trifluoromethyl-1,3-dihydro-benzo[b][1,4]diazepin-2-one] | 
12.8 nM | 212 to 213 °C | COCCOc1cc2c(cc1C(F)(F)F)NC(=O)CC(c1cccc(-c3ccnc(C#N)c3)c1)=N2 [Example 209, 4-{3-[8-(2-Methoxy-ethoxy)-4-oxo-7-trifluoromethyl-4,5-dihydro-3H-benzo[b][1,4]diazepin-2-yl]-phenyl}-pyridine-2-carbonitrile] | 
4.5 nM | 195 °C | CCc1cnc(C)cc1-c1cccc(C2=Nc3cc(C)c(Cl)cc3NC(=O)C2)c1 [Example 147, 8-Chloro-4-[3-(5-ethyl-2-methyl-pyridin-4-yl)-phenyl]-7-methyl-1,3-dihydro-benzo[b][1,4]diazepin-2-one] | 
18.8 nM | 195 °C | Cc1cccc(-c2cccc(C3=Nc4cc(N(C)C)c(C(F)(F)F)cc4NC(=O)C3)c2)n1 [Example 160, 7-Dimethylamino-4-[3-(6-methyl-pyridin-2-yl)-phenyl]-8-trifluoromethyl-1,3-dihydro-benzo[b][1,4]diazepin-2-one] | 
9.35 nM | 240 °C (dec.) | Cc1cc2c(cc1Cl)NC(=O)CC(c1cccc(-c3ccnnc3)c1)=N2 [Example 48, 8-Chloro-7-methyl-4-(3-pyridazin-4-yl-phenyl)-1,3-dihydro-benzo[b][1,4]diazepin-2-one] | 
1.29 nM | 225 °C | Cc1cc(-c2cccc(C3=Nc4cc(N(C)C)c(C(F)(F)F)cc4NC(=O)C3)c2)ccn1 [Example 78, 7-Dimethylamino-4-[3-(2-methyl-pyridin-4-yl)-phenyl]-8-trifluoromethyl-1,3-dihydro benzo[b][1,4]diazepin-2-one] | 
24.5 nM | 220 °C | COc1ccc(-c2cccc(C3=Nc4ccc(-c5ccccc5F)cc4NC(=O)C3)c2)nn1 [Example 41, 8-(2-Fluoro-phenyl)-4-[3-(6-methoxy-pyridazin-3-yl)-phenyl]-1,3-dihydro-benzo[b][1,4]diazepin-2-one] | 
3.25 nM | 229 °C | Cc1cc(-c2cccc(C3=Nc4cc(N(C)CC(C)C)c(Cl)cc4NC(=O)C3)c2)cc(C)n1 [Example 410, 8-Chloro-4-[3-(2,6-dimethyl-pyridin-4-yl)-phenyl]-7-(isobutyl-methyl-amino)-1,3-dihydro-benzo[b][1,4]diazepin-2-one] | 
5.5 nM | 215 to 218 °C | Cc1ccc(-c2cccc(C3=Nc4ccc(C(F)(F)F)cc4NC(=O)C3)c2)cn1 [Example 9, 4-[3-(6-Methyl-pyridin-3-yl)-phenyl]-8-trifluoromethyl-1,3-dihydro-benzo[b][1,4]diazepin-2-one] | 
16.5 nM | 225 °C | Cc1cc(-c2cccc(C3=Nc4cc(Cl)c(Cl)cc4NC(=O)C3)c2)cc(C)[n+]1[O-] [Example 376, 7,8-Dichloro-4-[3-(2,6-dimethyl-1-oxy-pyridin-4-yl)-phenyl]-1,3-dihydro-benzo[b][1,4]diazepin-2-one] | 
16.9 nM | 195 °C | Cc1cc(C2CC2)ncc1-c1cccc(C2=Nc3cc(C)c(C(F)(F)F)cc3NC(=O)C2)c1 [Example 246, 4-[3-(6-Cyclopropyl-4-methyl-pyridin-3-yl)-phenyl]-7-methyl-8-trifluoromethyl-1,3-dihydro-benzo[b][1,4]diazepin-2-one] | 
26.5 nM | 227 °C | CCOc1cc2c(cc1C(F)(F)F)NC(=O)CC(c1cccc(-c3cc[n+]([O-])c(C)c3)c1)=N2 [Example 359, 7-Ethoxy-4-[3-(2-methyl-1-oxy-pyridin-4-yl)-phenyl]-8-trifluoromethyl-1,3-dihydro-benzo[b][1,4]diazepin-2-one] | 

Ki (rat mGlu2 receptor; [1]) | melting point | Compound | Ki (rat mGlu2 receptor)
8 nM | 248 °C | Cc1cc2c(cc1Cl)NC(=O)CC(c1cccc(-c3cncnc3)c1)=N2 [Example 104, 8-Chloro-7-methyl-4-(3-pyrimidin-5-yl-phenyl)-1,3-dihydro-benzo[b][1,4]diazepin-2-one] | 
6.2 nM |  | O=C1CC(c2cccc(-c3cccnc3)c2)=Nc2cc(OCC(F)(F)F)ccc2N1 [Example 57, 4-(3-Pyridin-3-yl-phenyl)-7-(2,2,2-trifluoro-ethoxy)-1,3-dihydro-benzo[b][1,4]diazepin-2-one] | 
2 nM | 232 °C | O=C1CC(c2cccc(-c3cccnc3)c2)=Nc2ccc(Cl)cc2N1 [Example 28, 8-Chloro-4-(3-pyridin-3-yl-phenyl)-1,3-dihydro-benzo[b][1,4]diazepin-2-one] | 
22.5 nM | 187 to 189 °C | Cc1ccc(-c2cccc(C3=Nc4cc(N(C)C)c(C(F)(F)F)cc4NC(=O)C3)c2)c(C)n1 [Example 47, 7-Dimethylamino-4-[3-(2,6-dimethyl-pyridin-3-yl)-phenyl]-8-trifluoromethyl-1,3-dihydro-benzo[b][1,4]diazepin-2-one] | 
16.5 nM | 225 °C | Cc1ccc(-c2cccc(C3=Nc4ccc(-c5ccccc5F)cc4NC(=O)C3)c2)nn1 [Example 16, 8-(2-Fluoro-phenyl)-4-[3-(6-methyl-pyridazin-3-yl)-phenyl]-1,3-dihydro-benzo[b][1,4]diazepin-2-one] | 
3.1 nM | 233 °C | Cc1cncc(-c2cccc(C3=Nc4cc(C)c(C(F)(F)F)cc4NC(=O)C3)c2)n1 [Example 129, 7-Methyl-4-[3-(6-methyl-pyrazin-2-yl)-phenyl]-8-trifluoromethyl-1,3-dihydro-benzo[b][1,4]diazepin-2-one] | 
7.9 nM | 165 °C | O=C1CC(c2cccc(-c3ccnc(N4CCCC4)c3)c2)=Nc2cc(OCC(F)(F)F)c(C(F)(F)F)cc2N1 [Example 391, 4-[3-(2-Pyrrolidin-1-yl-pyridin-4-yl)-phenyl]-7-(2,2,2-trifluoro-ethoxy)-8-trifluoromethyl-1,3-dihydro-benzo[b][1,4]diazepin-2-one] | 
6.2 nM | 223 °C | O=C1CC(c2cccc(-c3cncnc3)c2)=Nc2ccc(-c3ccccc3F)cc2N1 [Example 105, 8-(2-Fluoro-phenyl)-4-(3-pyrimidin-5-yl-phenyl)-1,3-dihydro-benzo[b][1,4]diazepin-2-one] | 
12 nM | 252 to 256 °C | Cc1cc(-c2cccc(C3=Nc4cc(C)c(Cl)cc4NC(=O)C3)c2)nc(N2CCOCC2)n1 [Example 327, 8-Chloro-7-methyl-4-[3-(6-methyl-2-morpholin-4-yl-pyrimidin-4-yl)-phenyl]-1,3-dihydro-benzo[b][1,4]diazepin-2-one] | 
23.7 nM | 239 to 240 °C | N#Cc1cc(-c2cccc(C3=Nc4ccc(C(F)(F)F)cc4NC(=O)C3)c2)ccn1 [Example 198, 4-[3-(4-Oxo-7-trifluoromethyl-4,5-dihydro-3H-benzo[b][1,4]diazepin-2-yl)-phenyl]-pyridine-2-carbonitrile] | 
6 nM |  | CN(C)c1cc2c(cc1C(F)(F)F)NC(=O)CC(c1cccc(-c3ccncc3)c1)=N2 [Example 4, 7-Dimethylamino-4-(3-pyridin-4-yl-phenyl)-8-trifluoromethyl-1,3-dihydro-benzo[b][1,4]diazepin-2-one] | 
2.7 nM |  | Cc1cc(-c2cccc(C3=Nc4cc(C)c(Cl)cc4NC(=O)C3)c2)ccn1 [Example 73, 8-Chloro-7-methyl-4-[3-(2-methyl-pyridin-4-yl)-phenyl]-1,3-dihydro-benzo[b][1,4]diazepin-2-one] | 
2.3 nM |  | CN(C)c1cc2c(cc1C(F)(F)F)NC(=O)CC(c1cccc(-c3cccnc3)c1)=N2 [Example 3, 7-Dimethylamino-4-(3-pyridin-3-yl-phenyl)-8-trifluoromethyl-1,3-dihydro-benzo[b][1,4]diazepin-2-one] | 
1.35 nM |  | O=C1CC(c2cccc(-c3cccnc3)c2)=Nc2cc(Cl)c(Cl)cc2N1 [Example 1, 7,8-Dichloro-4-(3-pyridin-3-yl-phenyl)-1,3-dihydro-benzo[b][1,4]diazepin-2-one] | 
1.8 nM |  | Cc1cc(-c2cccc(C3=Nc4ccc(-c5ccccc5F)cc4NC(=O)C3)c2)ccn1 [Example 72, 8-(2-Fluoro-phenyl)-4-[3-(2-methyl-pyridin-4-yl)-phenyl]-1,3-dihydro-benzo[b][1,4]diazepin-2-one] | 
1.55 nM |  | Cc1cc2c(cc1Cl)NC(=O)CC(c1cccc(-c3ccncc3)c1)=N2 [Example 67, 8-Chloro-7-methyl-4-(3-pyridin-4-yl-phenyl)-1,3-dihydro-benzo[b][1,4]diazepin-2-one] | 

Compound | Ki (rat mGlu2 receptor; [1]) | melting point | Ki (rat mGlu2 receptor)
O=C1CC(c2cccc(-c3cncnc3)c2)=Nc2cc(Cl)c(Cl)cc2N1 [Example 97, 7,8-Dichloro-4-(3-pyrimidin-5-yl-phenyl)-1,3-dihydro-benzo[b][1,4]diazepin-2-one] |  | 272 °C | 10.7 nM
